# Experimental data: patent publication US10035806B2, “Derivatized corroles and metallocorroles and their use as imaging and therapeutic agents” (CALIFORNIA INSTITUTE OF TECHNOLOGY, priority 2015, dated 2018)
# Key:
# Experiment in all cases: NCI60 anticancer drug screen
# Assay type in all cases: cell-based, human
# TK-10 = TK-10 (Renal Cancer), 10 μM, 48 h
# From the text: (§1) The aminocaproate-substituted corrole Complex 3 was submitted to NCI for cytotoxic screening at a single high dose (10−5M) in a panel of 60 human tumor cell lines (NCI60). Details of the cytotoxicity assessment in the NCI anticancer drug screen have been described previously, in Monks A, et al. (1991) Feasibility of a high-flux anticancer drug screen using a diverse panel of cultured human tumor cell lines. J Natl Cancer Inst 83(11):757-766, this reference being incorporated by reference for these teachings.
# (§2) In view of the promising results observed for carboxylated corroles, Complex 3 was selected for expanded cell screening to uncover additional susceptible cancer cell lines. The cytotoxic activity of Complex 3 was tested at a dose of 10^−5 M against 60 human cancer cell lines representing nine distinct tumor types in the anticancer screening program of the National Cancer Institute (NCI). The in vitro parameters for cytotoxicity, growth percent, and lethality were obtained for Complex 3 and reported as a mean graph of the percent growth of treated cells (FIG. 7). Bars in the mean graph depict the deviation of individual tumor cell lines from the overall mean value for all cells tested. Bars that project to the right of the mean represent cell lines that are more sensitive to Complex 3, whereas cell lines less sensitive to the compound display bars that project to the left.
# (§3) The numerical values associated with this assay represent growth relative to the no-drug control and the numbers of cells at time 0 (FIG. 7). This allows detection of both growth inhibition (values between 0 and 100) and lethality (values less than 0). For example, a value of 100 signifies no growth inhibition, 40 means 60% growth inhibition, 0 means no net growth over the course of the experiment, −40 means 40% lethality, and −100 indicates all cells are dead. […] Growth inhibitions reflect cytostatic activity of the compound as previously shown for Complex 2. In contrast, cell lethality is only evident in melanoma cells, specifically the LOX IMVI and SK-MEL-28 cell lines.
# SNB-75 = SNB-75 (CNS Cancer), 10 μM, 48 h
# From the text: as §1, §2, §3
# HCC-2998 = HCC-2998 (Colon cancer), 10 μM, 48 h
# From the text: as §1, §2, §3
# HPO-92 = HPO-92 (Non-small-cell lung cancer), 10 μM, 48 h
# From the text: as §1, §2, §3
# UACC-257 = UACC-257 (Melanoma), 10 μM, 48 h
# From the text: as §1, §2, §3
# OVCAR-4 = OVCAR-4 (Ovarian Cancer), 10 μM, 48 h
# From the text: as §1, §2, §3
# NCI-H460 = NCI-H460 (Non-small-cell lung cancer), 10 μM, 48 h
# From the text: as §1, §2, §3
# OVCAR-8 = OVCAR-8 (Ovarian Cancer), 10 μM, 48 h
# From the text: as §1, §2, §3
# CAK-1 = CAK-1 (Renal Cancer), 10 μM, 48 h
# From the text: as §1, §2, §3
# UO-31 = UO-31 (Renal Cancer), 10 μM, 48 h
# From the text: as §1, §2, §3
# SF-539 = SF-539 (CNS Cancer), 10 μM, 48 h
# From the text: as §1, §2, §3
# HT29 = HT29 (Colon cancer), 10 μM, 48 h
# From the text: as §1, §2, §3
# EKVX = EKVX (Non-small-cell lung cancer), 10 μM, 48 h
# From the text: as §1, §2, §3
# RPMI-8226 = RPMI-8226 (Leukemia), 10 μM, 48 h
# From the text: as §1, §2, §3
# T-47D = T-47D (Breast Cancer), 10 μM, 48 h
# From the text: as §1, §2, §3
# MDA-MB-231/ATCC = MDA-MB-231/ATCC (Breast Cancer), 10 μM, 48 h
# From the text: as §1, §2, §3
# HOP-62 = HOP-62 (Non-small-cell lung cancer), 10 μM, 48 h
# From the text: as §1, §2, §3
# SF-268 = SF-268 (CNS Cancer), 10 μM, 48 h
# From the text: as §1, §2, §3
smiles,measurement,setting,value
O=C(O)CCCCCNc1c(F)c(F)c(C2=C3C=CC4=[N+]3[Ga-]35[n]6c2ccc6C(c2c(F)c(F)c(F)c(F)c2F)=c2ccc([n]23)=C(c2c(F)c(F)c(F)c(F)c2F)c2ccc4[n]25)c(F)c1F (stereo not drawn) [Complex 3],"Growth inhibition, %",TK-10,47.3%
same,"Growth inhibition, %",SNB-75,30.7%
same,"Growth inhibition, %",HCC-2998,60.1%
same,"Growth inhibition, %",HPO-92,81.6%
same,"Growth inhibition, %",UACC-257,37.2%
same,"Growth inhibition, %",OVCAR-4,59.9%
same,"Growth inhibition, %",NCI-H460,94.2%
same,"Growth inhibition, %",OVCAR-8,67.3%
same,"Growth inhibition, %",CAK-1,71.7%
same,"Growth inhibition, %",UO-31,64.7%
same,"Growth inhibition, %",SF-539,85.3%
same,"Growth inhibition, %",HT29,60.6%
same,"Growth inhibition, %",EKVX,59.7%
same,"Growth inhibition, %",RPMI-8226,70.2%
same,"Growth inhibition, %",T-47D,45.9%
same,"Growth inhibition, %",MDA-MB-231/ATCC,72.5%
same,"Growth inhibition, %",HOP-62,44.9%
same,"Growth inhibition, %",SF-268,65.8%
